The experiment relates to MkC1qDC. Kind of experiment: hemagglutination inhibition, fixed human group […] erythrocytes, two-fold dilutions. The settings on record: Ca2+-dependent lectin activity, 0.1 mg/mL protein, titer decline by one two-fold dilution, also given as 1.16 mg/mL. It is filed as cell-based, Modiolus kurilensis.

By IC50 is commonly meant the concentration at which inhibition is half-maximal.

For the compound `OC[C@H]1OC(O)C[C@@H](O)[C@H]1O` (stereo partly drawn) [2-deoxy-D-galactose], the concentration for half-maximal inhibition (IC50) (also printed as 2.46 mg/mL) is 15 mM.

In the case of `OC[C@H]1O[C@@H](O[C@H]2[C@H](O)[C@@H](O)C(O)O[C@@H]2CO)[C@H](O)[C@@H](O)[C@H]1O` (stereo partly drawn) [D-lactose], the IC50 (also printed as 5.13 mg/mL) turned out to be 15 mM. With `OC[C@H]1OC(O)[C@H](O)[C@@H](O)[C@H]1O` (stereo partly drawn) [D-galactose], the IC50 (also printed as 5.40 mg/mL) was found to be 30 mM. On to `O=C(O)[C@H]1OC(O)[C@H](O)[C@@H](O)[C@@H]1O` (stereo partly drawn) [D-glucuronic acid], for which, under “also printed as 1.46 mg/mL”, the IC50 was 7.5 mM. With `O=C(O)[C@H]1OC(O)[C@H](O)[C@@H](O)[C@H]1O` (stereo partly drawn) [D-galacturonic acid], the IC50 (also printed as 1.46 mg/mL) was found to be 7.5 mM. Regarding `OC[C@H]1O[C@H](O[C@@H]2C(O)O[C@H](CO)[C@@H](O)[C@@H]2O)[C@@H](O)[C@@H](O)[C@@H]1O` (stereo partly drawn) [2α- mannobiose], for the setting “also printed as 10.26 mg/mL”, the IC50 turned out to be 30 mM.

With `CC(=O)N[C@H]1[C@H]([C@H](O)[C@H](O)CO)OC(O)(C(=O)O)C[C@@H]1O` (some centres unmarked) [N-acetylneuraminic (sialic) acid], the IC50 came out at 3.75 mM. Consider `OC[C@@H]1OC(O)[C@@H](O)[C@@H](O)[C@@H]1O` (stereo partly drawn) [L-gulose], for which the IC50 (also printed as 1.35 mg/mL) was 7.5 mM.

Source of the values: paper PMC8706970, “A Novel C1q Domain-Containing Protein Isolated from the Mollusk Modiolus kurilensis Recognizing Glycans Enriched with Acidic Galactans and Mannans” (Marine Drugs, 2021).
